Measurements reported in patent US20060115815A1 (priority 2002, published 2006).

Key:
[1] = target: recombinant HIV-1 protease (Human immunodeficiency virus type 1 group M subtype B, UniProt P04585); experiment: biochemical; assay type: biochemical; settings: Ki (pM), class symbols, Table 10
in vitro = settings: human
[2] = target: porcine liver carboxylesterase (PLCE) (Sus scrofa, UniProt Q29550); experiment: biochemical; settings: read-out: Relative Activity (%)
[3] = target: human leukocyte elastase (huLE) (Homo sapiens, UniProt P08246); settings: 10 µM
GS-7340 Ester Hydrolase = target: T1, GS-7340 Ester Hydrolase (Homo sapiens, UniProt P10619); experiment: biochemical; settings: read-out: IC50 (μM) GS-7340 Ester Hydrolase
T1 construct: from tissue; host or cells: human peripheral blood mononuclear cells (extract and column pools)

[4] = test system: recombinant HIV-1 strain, protease 54V/71V/82S
WT HIV-1 = experiment: microbe, parasite or virus in culture; assay type: cell-based; settings: Human immunodeficiency virus 1, read-out: EC50 [nM] WT HIV-1
[5] = test system: recombinant HIV-1 strain, protease 10I/48V/54V/82A
[6] = test system: recombinant HIV-1 strain, protease 30N/50S/82I/88D
[7] = test system: recombinant HIV-1 strain, protease 10F/46I/71V/82T/90M
[8] = test system: recombinant HIV-1 strain, protease 48V/54V/71V/82S
[9] = test system: recombinant HIV-1 strain, protease 10R/46I/82T/84V
[10] = test system: recombinant HIV-1 strain, protease 46I/47V/50V
[11] = test system: recombinant HIV-1 strain, protease 46I/84A
[12] = test system: recombinant HIV-1 strain, protease 10I/48V/71V/82A/90M
[13] = test system: mutant HIV-1 with I84V/L90M mutations in the protease gene; assay type: cell-based; settings: fold difference in EC50, mutant vs. wild type
[14] = test system: recombinant HIV-1 strains with resistance mutations in the protease gene; experiment: Cross-resistance profile assay, whole panel of mutant viruses; assay type: cell-based; settings: {}

Sequence of porcine liver carboxylesterase (PLCE) (Q29550 19-566): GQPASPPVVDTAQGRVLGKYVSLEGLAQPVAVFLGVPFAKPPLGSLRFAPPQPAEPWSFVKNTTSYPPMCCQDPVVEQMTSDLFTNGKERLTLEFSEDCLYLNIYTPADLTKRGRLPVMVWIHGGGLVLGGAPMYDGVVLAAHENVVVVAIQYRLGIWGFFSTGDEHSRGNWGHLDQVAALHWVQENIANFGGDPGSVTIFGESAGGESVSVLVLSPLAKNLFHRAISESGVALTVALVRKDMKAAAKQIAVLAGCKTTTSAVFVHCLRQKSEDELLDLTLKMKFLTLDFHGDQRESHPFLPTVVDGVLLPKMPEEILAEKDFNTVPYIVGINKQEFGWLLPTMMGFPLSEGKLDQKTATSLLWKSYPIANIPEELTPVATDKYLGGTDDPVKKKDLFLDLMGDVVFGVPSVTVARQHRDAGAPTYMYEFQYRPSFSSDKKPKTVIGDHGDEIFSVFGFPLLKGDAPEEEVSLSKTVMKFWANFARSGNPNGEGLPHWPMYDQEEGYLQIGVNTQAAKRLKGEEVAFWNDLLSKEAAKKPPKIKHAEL
T1 sequence (P10619 29-326 limits assumed): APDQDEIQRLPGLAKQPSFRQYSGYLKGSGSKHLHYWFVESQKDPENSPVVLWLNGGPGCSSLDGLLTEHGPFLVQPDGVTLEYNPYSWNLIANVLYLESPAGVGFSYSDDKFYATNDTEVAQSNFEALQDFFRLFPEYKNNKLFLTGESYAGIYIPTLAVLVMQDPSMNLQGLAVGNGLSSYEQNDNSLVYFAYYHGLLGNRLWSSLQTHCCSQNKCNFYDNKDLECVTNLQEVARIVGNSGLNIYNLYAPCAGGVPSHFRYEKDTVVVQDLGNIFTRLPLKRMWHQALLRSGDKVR
T1 sequence (P10619 327-480 limits assumed): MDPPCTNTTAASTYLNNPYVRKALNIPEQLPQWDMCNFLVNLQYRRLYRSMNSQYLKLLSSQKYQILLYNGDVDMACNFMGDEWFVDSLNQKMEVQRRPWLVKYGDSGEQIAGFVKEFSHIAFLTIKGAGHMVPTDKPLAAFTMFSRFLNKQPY
Sequence of human leukocyte elastase (huLE) (P08246 30-267): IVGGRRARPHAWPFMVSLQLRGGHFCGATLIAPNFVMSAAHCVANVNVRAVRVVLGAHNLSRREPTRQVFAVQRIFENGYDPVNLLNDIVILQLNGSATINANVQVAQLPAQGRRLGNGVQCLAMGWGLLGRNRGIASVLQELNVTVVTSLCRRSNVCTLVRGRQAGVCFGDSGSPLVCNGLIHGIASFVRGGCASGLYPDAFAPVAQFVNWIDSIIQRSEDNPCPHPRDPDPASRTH

## CCOC(=O)C(C)OP(=O)(COc1ccc(CC(NC(=O)OC2COC3OCCC23)C(O)CN(CC(C)C)S(=O)(=O)c2ccc(OC)cc2)cc1)Oc1ccccc1 (centres unmarked) [drawing 658 R1=OPh R2=Lac-Et]
[1]
  Ki: 10 to 100 pM
In vitro
  CC50 at 5 days: 5 to 50 µM

## O=c1oc(Cl)c(Cl)c2ccccc12 [3,4-dichloroisocoumarin]
[2]
  activity at 1 µM: 100%
  activity at 10 µM: 100%
  activity at 100 µM: 90%
  activity at 1000 µM: 20%
[3]
  Relative Activity (%): 25%
GS-7340 Ester Hydrolase
  IC50: 4 µM

## CCC[C@@]1(CCc2ccccc2)CC(O)=C([C@H](CC)c2cccc(NS(=O)(=O)c3ccc(C(F)(F)F)cn3)c2)C(=O)O1 [Tipranavir]
[4]
  Fold Change in EC50 Relative to WT HIV-1: 3.5
WT HIV-1
  EC50: 80 nM
[5]
  Fold Change in EC50 Relative to WT HIV-1: 0.4
[6]
  Fold Change in EC50 Relative to WT HIV-1: 0.5
[7]
  Fold Change in EC50 Relative to WT HIV-1: 3
[8]
  Fold Change in EC50 Relative to WT HIV-1: 2
[9]
  Fold Change in EC50 Relative to WT HIV-1: 5
[10]
  Fold Change in EC50 Relative to WT HIV-1: 0.5
[11]
  Fold Change in EC50 Relative to WT HIV-1: 1
[12]
  Fold Change in EC50 Relative to WT HIV-1: 0.3
[13]
  I84V/L90M fold change: + (>3 to ≦10)
[14]
  Total No. of Resistant Viruses: 1
